Test results as given in ChEMBL document CHEMBL1138566, “Synthesis of novel benzo[h]quinolines: wound healing, antibacterial, DNA binding and in vitro antioxidant activity” (Eur J Med Chem, 2009).
In brackets after ≈: the same amount, converted by molar mass. Activity calls are given as the source filed them. The calls are words filed in the database; no cut-off is given here.

What was measured:
[1] = Antioxidant activity assessed as hydrogen peroxide scavenging activity at 60 ug/ml by spectrophotometry; assay type: functional
[2] = Antioxidant activity assessed as inhibition of phenazine methosulphate-NADH coupling reaction-induced superoxide anion production at 60 ug/ml; assay type: functional; set-up: scale not given: the % may be the effect or the level left
[3] = system: Radical scavenging activity; test: Antioxidant activity assessed as DPPH radical scavenging activity; assay type: functional
[4] = system: Rattus norvegicus; test: Wound healing activity in Wistar albino rat dorsal back excision wound model assessed as wound closure applied topically as 1 %W/W gel base ointment measured after 4 days; assay type: functional
[5] = system: Rattus norvegicus; test: Wound healing activity in Wistar albino rat dorsal back incision wound model assessed as tensile strength applied topically as cream base ointment over 100/500 mm'2 scar by tensiometry; assay type: functional
[6] = system: Rattus norvegicus; test: Wound healing activity in Wistar albino rat dorsal back excision wound model assessed as wound closure applied topically as 1 %W/W gel base ointment measured after 8 days; assay type: functional
[7] = system: Rattus norvegicus; test: Wound healing activity in Wistar albino rat dorsal back excision wound model assessed as wound closure applied topically as 1 %W/W gel base ointment measured after 12 days; assay type: functional, organism-based
[8] = system: Rattus norvegicus; test: Wound healing activity in Wistar albino rat dorsal back excision wound model assessed as wound closure applied topically as 1 %W/W gel base ointment measured after 16 days; assay type: functional
[9] = system: Rattus norvegicus; test: Wound healing activity in Wistar albino rat dorsal back excision wound model assessed as epithelization period applied topically as cream base ointment over 100/500mm'2 scar; assay type: functional
[10] = system: Rattus norvegicus; test: Wound healing activity in Wistar albino rat dorsal back excision wound model assessed as wound closure applied topically as cream base ointment over 100/500 mm'2 scar measured after 12 days; assay type: functional
[11] = system: Streptococcus pyogenes; test: Antibacterial activity against Streptococcus pyogenes NCIM 2608 at 10 mg/ml after 48 hrs by agar well diffusion method; assay type: functional; details: NCIM 2608, 48 h, read-out: DIZ
[12] = system: Staphylococcus aureus; test: Antibacterial activity against Staphylococcus aureus ATCC 29737 at 10 mg/ml after 48 hrs by agar well diffusion method; assay type: functional; details: ATCC 29737, 48 h, read-out: DIZ
[13] = system: Escherichia coli; test: Antibacterial activity against Escherichia coli after 48 hrs by microdilution method; assay type: functional
[14] = system: Nucleic Acid; test: Intrinsic binding affinity to DNA assessed as hypochromism by absorption spectral analysis; assay type: nucleic-acid assay
[15] = system: Streptococcus pyogenes; test: Antibacterial activity against Streptococcus pyogenes NCIM 2608 after 48 hrs by microdilution method; assay type: functional; details: NCIM 2608, 48 h
[16] = system: Pseudomonas aeruginosa; test: Antibacterial activity against Pseudomonas aeruginosa ATCC 20852 after 48 hrs by microdilution method; assay type: functional; details: ATCC 20852, 48 h
[17] = system: Calf thymus DNA; test: Binding affinity to calf thymus DNA assessed as melting temperature; assay type: nucleic-acid assay; details: Bos taurus
[18] = system: Escherichia coli; test: Antibacterial activity against Escherichia coli at 10 mg/ml after 48 hrs by agar well diffusion method; assay type: functional; details: read-out: DIZ
[19] = system: Klebsiella pneumoniae; test: Antibacterial activity against Klebsiella pneumoniae MTCC 618 after 48 hrs by microdilution method; assay type: functional; details: MTCC 618, 48 h
[20] = system: Pseudomonas aeruginosa; test: Antibacterial activity against Pseudomonas aeruginosa ATCC 20852 at 10 mg/ml after 48 hrs by agar well diffusion method; assay type: functional; details: ATCC 20852, 48 h, read-out: DIZ
[21] = system: Rattus norvegicus; test: Wound healing activity in Wistar albino rat dorsal back excision wound model assessed as wound closure applied topically as cream base ointment over 100/500 mm'2 scar measured after 4 days; assay type: functional
[22] = system: Rattus norvegicus; test: Wound healing activity in Wistar albino rat dorsal back excision wound model assessed as wound closure applied topically as cream base ointment over 100/500 mm'2 scar measured after 16 days; assay type: functional
[23] = system: Bacillus subtilis; test: Antibacterial activity against Bacillus subtilis NCIM 2010 at 10 mg/ml after 48 hrs by agar well diffusion method; assay type: functional; details: NCIM 2010, 48 h, read-out: DIZ
[24] = system: Calf thymus DNA; test: Binding affinity to calf thymus DNA assessed as increase in viscosity at 100 uM; assay type: nucleic-acid assay; details: Bos taurus
[25] = Antioxidant activity assessed as increase in reducing power at 20 to 60 ug/mL; assay type: functional
[26] = system: Rattus norvegicus; test: Wound healing activity in Wistar albino rat dorsal back excision wound model assessed as wound closure applied topically as cream base ointment over 100/500 mm'2 scar measured after 8 days; assay type: functional
[27] = system: Staphylococcus aureus; test: Antibacterial activity against Staphylococcus aureus ATCC 29737 after 48 hrs by microdilution method; assay type: functional; details: ATCC 29737, 48 h
[28] = Antioxidant activity assessed as hydrogen peroxide scavenging activity by spectrophotometry; assay type: functional
[29] = system: Klebsiella pneumoniae; test: Antibacterial activity against Klebsiella pneumoniae MTCC 618 at 10 mg/ml after 48 hrs by agar well diffusion method; assay type: functional; details: MTCC 618, 48 h, read-out: DIZ
[30] = system: Bacillus subtilis; test: Antibacterial activity against Bacillus subtilis NCIM 2010 by microdilution method; assay type: functional
[31] = system: Nucleic Acid; test: Intrinsic binding affinity to DNA by absorption spectral analysis; assay type: nucleic-acid assay
[32] = system: Nucleic Acid; test: Binding affinity to DNA assessed as reduction of Uv-vis spectra absorption at 312 nm wavelength at 0.5 uM by DNA intercalation assay; assay type: nucleic-acid assay; set-up: scale not given: the % may be the effect or the level left
[33] = system: Staphylococcus aureus; test: microbe, parasite or virus in culture; details: ATCC 29737, 48 h, read-out: DIZ
Description: Antibacterial activity against Staphylococcus aureus ATCC 29737 at 10 ug/ml after 48 hrs by agar well diffusion method

[34] = system: Streptococcus pyogenes; test: microbe, parasite or virus in culture; details: NCIM 2608, 48 h, read-out: DIZ
Description: Antibacterial activity against Streptococcus pyogenes NCIM 2608 at 10 ug/ml after 48 hrs by agar well diffusion method

[35] = system: Klebsiella pneumoniae; test: microbe, parasite or virus in culture; details: MTCC 618, 48 h, read-out: DIZ
Description: Antibacterial activity against Klebsiella pneumoniae MTCC 618 at 10 ug/ml after 48 hrs by agar well diffusion method

[36] = system: Pseudomonas aeruginosa; test: microbe, parasite or virus in culture; details: ATCC 20852, 48 h, read-out: DIZ
Description: Antibacterial activity against Pseudomonas aeruginosa ATCC 20852 at 10 ug/ml after 48 hrs by agar well diffusion method

[37] = system: Bacillus subtilis; test: microbe, parasite or virus in culture; details: NCIM 2010, 48 h, read-out: DIZ
Description: Antibacterial activity against Bacillus subtilis NCIM 2010 at 10 ug/ml after 48 hrs by agar well diffusion method

[38] = system: Escherichia coli; test: Antibacterial activity against Escherichia coli at 10 ug/ml after 48 hrs by agar well diffusion method; details: read-out: DIZ
[39] = system: Nucleic Acid; test: Binding affinity to DNA assessed as reduction of Uv-vis spectra absorption at 293 nm wavelength at 0.5 uM by DNA intercalation assay; assay type: nucleic-acid assay; set-up: scale not given: the % may be the effect or the level left
[40] = system: Rattus norvegicus; test: Wound healing activity in Wistar albino rat dorsal back excision wound model applied topically as cream base ointment over 100/500 mm'2 scar measured after 18 days; assay type: functional
[41] = system: Rattus norvegicus; test: Wound healing activity in Wistar albino rat dorsal back excision wound model applied topically as 1 %W/W gel base ointment measured after 18 days; assay type: functional

In the case of `COc1ccc(O)c(C(C)(C)C)c1.COc1ccc(O)cc1C(C)(C)C`, the Activity [1] is reported as “Active”, the Activity [2] is reported as 81% and the Activity [3] is reported as 64%.
Work on `NC(=O)N/N=C/c1ccc([N+](=O)[O-])o1` [NITROFURAZONE] yielded an Activity [4] of 55.68%, an Activity [5] of 599 g and an Activity [6] of 87.21%. For the same molecule, the Activity [7] was 97.68%, the Activity [8] was 100% and the Activity [9] was 14 days.
For `O=Cc1cc2ccc3ccccc3c2nc1[SeH]`, the Activity [10] was 95.7%, the zone of inhibition at 10000 µg/mL [11] was 19.5 mm and the zone of inhibition at 10000 µg/mL [12] was 22.8 mm. For the same molecule, the MIC [13] was 25 µg/mL (≈ 87.4 µM), the Activity [14] was 25.1% and the Activity [1] was 74%. It also gave an MIC [15] of 12.5 µg/mL (≈ 43.7 µM), an MIC [16] of 16 µg/mL (≈ 55.9 µM) and an Activity [5] of 582.33 g. It also gave a Tm [17] of 58 °C, a zone of inhibition at 10000 µg/mL [18] of 17.2 mm and an MIC [19] of 25 µg/mL (≈ 87.4 µM). It also gave a zone of inhibition at 10000 µg/mL [20] of 12.2 mm, an Activity [21] of 53.65% and an Activity [22] of 100%. The Activity [2] was 76%, the zone of inhibition at 10000 µg/mL [23] was 20.6 mm and the Activity [24] was “Active”. For the same molecule, the Activity [25] was “Active”, the Activity [26] was 85.26% and the Activity [3] was 61%. For the same molecule, the MIC [27] was 8 µg/mL (≈ 28 µM), the Activity [28] was “Dose-dependent effect” and the zone of inhibition at 10000 µg/mL [29] was 14.5 mm. The MIC [30] was 16.2 µg/mL (≈ 56.8 µM), the Kb [31] was 3.8 ×10⁶ /M and the Activity [32] was 18.2%. It also gave an Activity [9] of 16 days.
For `Cc1cc(C(C)(C)C)c(O)c(C(C)(C)C)c1`, the Activity [1] was “Active”, the Activity [2] was 51% and the Activity [3] was 48%.
Molecule `O=C(O)c1cn(C2CC2)c2cc(N3CCNCC3)c(F)cc2c1=O` [CIPROFLOXACIN] has a zone of inhibition at 10 µg/mL [33] of 21.4 mm, a zone of inhibition at 10 µg/mL [34] of 20.8 mm and an MIC [13] of 6.5 µg/mL (≈ 19.6 µM). The zone of inhibition at 10 µg/mL [35] was 20.1 mm, the MIC [15] was 6.25 µg/mL (≈ 18.9 µM) and the zone of inhibition at 10 µg/mL [36] was 23.3 mm. It also gave an MIC [19] of 12.5 µg/mL (≈ 37.7 µM), an MIC [27] of 6.75 µg/mL (≈ 20.4 µM) and a zone of inhibition at 10 µg/mL [37] of 21.3 mm. The zone of inhibition at 10 µg/mL [38] was 19.2 mm and the MIC [30] was 12.5 µg/mL (≈ 37.7 µM).
With `O=Cc1cc2ccc3ccccc3c2nc1S` the Activity [10] was 85.94%, the zone of inhibition at 10000 µg/mL [11] was 17.4 mm and the zone of inhibition at 10000 µg/mL [12] was 19.4 mm. For the same molecule, the MIC [13] was 32 µg/mL (≈ 134 µM), the Activity [14] was 20.5% and the Activity [39] was 20.3%. It also gave an Activity [1] of 68%, an MIC [15] of 12.5 µg/mL (≈ 52.2 µM) and an MIC [16] of 16 µg/mL (≈ 66.9 µM). It also gave an Activity [5] of 544.83 g, a Tm [17] of 60 °C and a zone of inhibition at 10000 µg/mL [18] of 12.3 mm. It also gave an MIC [19] of 12.5 µg/mL (≈ 52.2 µM), a zone of inhibition at 10000 µg/mL [20] of 11.6 mm and an Activity [21] of 45.35%. It also gave an Activity [22] of 96.24%, an Activity [2] of 65% and a zone of inhibition at 10000 µg/mL [23] of 15.2 mm. For the same molecule, the Activity [40] was 100%, the Activity [24] was “Active” and the Activity [25] was “Active”. The Activity [26] was 75.63%, the Activity [3] was 55% and the MIC [27] was 11 µg/mL (≈ 46 µM). The Activity [28] was “Dose-dependent effect”, the zone of inhibition at 10000 µg/mL [29] was 13.6 mm and the MIC [30] was 16.2 µg/mL (≈ 67.9 µM). The Kb [31] was 2.7 ×10⁵ /M, the Activity [41] was 95.71% and the Activity [9] was 18 days.
